Source: patent publication US20240336642A1 (The General Hospital Corporation, priority 2021, published 2024)
Where a name gives a salt, the structure may show the parent alone.

Molecular target: h12/15-LOX (Homo sapiens (Human), UniProt P16050)
Assay: 12/15-LOX enzyme inhibition IC50 assay (Examples 1 and 2)
Type: biochemical
Details: for Emax: h12/15-LOX, read-out: Max % inhibition
Description: Enzyme was then added to the cuvettes. […] The % inhibition for each test compound concentration were calculated as follows: […]

Chain of h12/15-LOX (P16050 whole entry): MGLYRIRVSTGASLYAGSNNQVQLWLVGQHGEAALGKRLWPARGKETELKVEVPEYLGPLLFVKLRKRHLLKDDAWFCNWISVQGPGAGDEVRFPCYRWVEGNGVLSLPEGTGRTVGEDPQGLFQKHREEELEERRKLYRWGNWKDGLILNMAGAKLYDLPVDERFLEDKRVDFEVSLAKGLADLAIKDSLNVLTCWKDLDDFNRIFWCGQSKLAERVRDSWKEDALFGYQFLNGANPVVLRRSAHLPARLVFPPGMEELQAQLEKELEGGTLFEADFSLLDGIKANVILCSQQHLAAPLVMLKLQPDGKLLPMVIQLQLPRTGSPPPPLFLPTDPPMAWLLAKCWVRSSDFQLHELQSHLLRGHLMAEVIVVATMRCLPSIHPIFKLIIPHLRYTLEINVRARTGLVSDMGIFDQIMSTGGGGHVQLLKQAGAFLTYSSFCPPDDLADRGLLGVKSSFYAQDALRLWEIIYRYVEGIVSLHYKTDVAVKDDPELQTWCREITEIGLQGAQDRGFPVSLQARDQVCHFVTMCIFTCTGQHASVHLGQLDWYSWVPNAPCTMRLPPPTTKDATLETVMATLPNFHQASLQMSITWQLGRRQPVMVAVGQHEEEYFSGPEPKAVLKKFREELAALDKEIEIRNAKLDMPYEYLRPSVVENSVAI

Structure (SMILES): CN(C)CCCCCC(=O)N(C)c1oc(-c2cc(Cl)cc(Cl)c2Cl)nc1C#N [Compound 61, N-(4-cyano-2-(2,3,5-trichlorophenyl)oxazol-5-yl)-6-(dimethylamino)-N-methylhexanamide hydrochloride]
- IC50: > 20 µM

Structure (SMILES): CN(C)CCCCC(=O)N(C)c1oc(-c2cc(Cl)cc(Cl)c2Cl)nc1C#N [Compound 62, N-(4-Cyano-2-(2,3,5-trichlorophenyl)oxazol-5-yl)-5-(dimethylamino)-N-methylpentanamide hydrochloride]
- IC50: 8.3 µM
- Emax: 100%

Structure (SMILES): CN(C)CCCCCC(=O)Nc1oc(-c2cc(Cl)cc(Cl)c2Cl)nc1C#N [Compound 63, N-(4-cyano-2-(2,3,5-trichlorophenyl)oxazol-5-yl)-6-(dimethylamino) hexanamide hydrochloride]
- IC50: > 20 µM

Structure (SMILES): CN(C)CCCCC(=O)Nc1oc(-c2cc(Cl)cc(Cl)c2Cl)nc1C#N [Compound 64, N-(4-Cyano-2-(2,3,5-trichlorophenyl)oxazol-5-yl)-5-(dimethylamino)pentanamide hydrochloride]
- IC50: > 20 µM

Structure (SMILES): CN(C)CCCC(=O)Nc1oc(-c2cc(Cl)cc(Cl)c2Cl)nc1C#N [Compound 65, N-(4-Cyano-2-(2,3,5-trichlorophenyl)oxazol-5-yl)-4-(dimethylamino)butanamide hydrochloride]
- IC50: > 20 µM

Structure (SMILES): CN(C)CCCNC(=O)N(C)c1oc(-c2cc(Cl)cc(Cl)c2Cl)nc1C#N [Compound 66, 1-(4-cyano-2-(2,3,5-trichlorophenyl)oxazol-5-yl)-3-(3-(dimethylamino)propyl)-1-methylurea hydrochloride]
- IC50: > 20 µM

Structure (SMILES): CN(C)CCCNC(=O)Nc1oc(-c2cc(Cl)cc(Cl)c2Cl)nc1C#N [Compound 67, 1-(4-cyano-2-(2,3,5-trichlorophenyl)oxazol-5-yl)-3-(3-(dimethylamino)propyl) urea hydrochloride]
- IC50: > 20 µM

Structure (SMILES): CN(c1oc(-c2cc(Cl)cc(Cl)c2Cl)nc1C#N)P(=O)(O)O [Compound 68, (4-cyano-2-(2,3,5-trichlorophenyl)oxazol-5-yl)(methyl)phosphoramidic acid]
- IC50: > 20 µM

Structure (SMILES): CCOCCOCCNc1oc(-c2cc(Cl)cc(Cl)c2Cl)nc1C#N [Compound 69, 5-((2-(2-Ethoxyethoxy)ethyl)amino)-2-(2,3,5-trichlorophenyl)oxazole-4-carbonitrile]
- IC50: 0.33 µM
- Emax: 100%

Structure (SMILES): N#Cc1nc(-c2cc(Cl)cc(Cl)c2Cl)oc1NCCOCCOCCF [Compound 70, 5-((2-(2-(2-Fluoroethoxy)ethoxy)ethyl)amino)-2-(2,3,5-trichlorophenyl)oxazole-4-carbonitrile]
- IC50: 1.1 µM
- Emax: 110%

Structure (SMILES): N#Cc1nc(-c2cc(Cl)cc(Cl)c2Cl)oc1NCCOCCOCC(F)(F)F [Compound 71, 2-(2,3,5-Trichlorophenyl)-5-((2-(2-(2,2,2-trifluoroethoxy)ethoxy)ethyl)amino)oxazole-4-carbonitrile]
- IC50: 0.16 µM
- Emax: 95%

Structure (SMILES): N#Cc1nc(-c2cc(Cl)cc(Cl)c2Cl)oc1NCCOCCN1CC(F)(F)C1 [Compound 72, 5-((2-(2-(3,3-Difluoroazetidin-1-yl)ethoxy)ethyl)amino)-2-(2,3,5-trichlorophenyl)oxazole-4-carbonitrile]
- IC50: > 20 µM

Structure (SMILES): CN(CCOCCNc1oc(-c2cc(Cl)cc(Cl)c2Cl)nc1C#N)CC(F)(F)F [Compound 73, 5-((2-(2-(Methyl(2,2,2-trifluoroethyl)amino)ethoxy)ethyl)amino)-2-(2,3,5-trichlorophenyl)oxazole-4-carbonitrile]
- IC50: 0.47 µM
- Emax: 70%

Structure (SMILES): N#Cc1nc(-c2cc(Cl)cc(Cl)c2Cl)oc1NCCOCCN1CCCC(F)C1 (stereo not drawn) [Compound 74, 5-((2-(2-(3-Fluoropiperidin-1-yl)ethoxy)ethyl)amino)-2-(2,3,5-trichlorophenyl)oxazole-4-carbonitrile]
- IC50: > 20 µM

Structure (SMILES): N#Cc1nc(-c2cc(Cl)cc(Cl)c2Cl)oc1NCCOCCN1CCCC(F)(F)C1 [Compound 75, 5-((2-(2-(3,3-Difluoropiperidin-1-yl)ethoxy)ethyl)amino)-2-(2,3,5-trichlorophenyl)oxazole-4-carbonitrile]
- IC50: 1.1 µM
- Emax: 61%
